# Measurements published in patent EP1561465A2, “Methods of use of fluoroquinolone compounds against bacteria” (LG Life Sciences, Ltd., priority 1999, dated 2001).
# “And” between values parts separate entries of the source, which are not always exact repeats. Equal values may be shown once. Read-outs that look alike come from different tables or passages of the source.
# Legend:
# Format in all cases: cell-based
# [1] = system: Gram positive anaerobic and facultative anaerobic pathogens; test: organism not typed
# [2] = system: Gram negative anaerobic pathogens and facultative anaerobic pathogens; test: MIC by agar dilution, Brucella HK agar with 5% laked sheep blood, anaerobic reference strains
# Pseudomonas aeruginosa = test: MIC by agar dilution (NCCLS), 322 nosocomial Gram negative isolates, Athens 1998; conditions: n = 57 isolates
# Klebsiella pneumoniae = test: as above; conditions: n = 56 isolates
# Proteus mirabilis = test: as above; conditions: n = 57 isolates
# Enterobacter spp. = test: as above; conditions: n = 57 isolates
# Acinetobacter spp. = test: as above; conditions: n = 38 strains
smiles,measurement,setting,value
C[C@@H](O)[C@H]1C(=O)N2C(C(=O)O)=C(SCCN=CN)C[C@H]12 [Imipenem],MIC,[1],0.125 µg/mL and 0.25 µg/mL
same,MIC,"[1]; Bifidobacterium adolescentis, ATCC15703",0.125 µg/mL
same,MIC,"[1]; Bifidobacterium bifidum, JCM1255",0.125 µg/mL
same,MIC,"[1]; Bifidobacterium breve, ATCC15700",1 µg/mL
same,MIC,"[1]; Bifidobacterium longum, ATCC15707",0.25 µg/mL
same,MIC,"[1]; Bifidobacterium pseudolongum, ATCC25526",0.25 µg/mL
same,MIC,[1]; Clostridioides difficile,4 µg/mL
same,MIC,"[1]; Clostridium perfringens, ATCC13124",0.125 µg/mL
same,MIC,"[1]; Clostridium septicum, ATCC12464",≤ 0.03 µg/mL
same,MIC,"[1]; Cutibacterium acnes, ATCC11828",0.125 µg/mL
same,MIC,"[1]; Eggerthella lenta, ATCC25559",2 µg/mL
same,MIC,"[1]; Finegoldia magna, ATCC29328",0.25 µg/mL
same,MIC,"[1]; Gemella morbillorum, ATCC27824",≤ 0.03 µg/mL
same,MIC,"[1]; Lacticaseibacillus casei, JCM1134",0.5 µg/mL
same,MIC,"[1]; Lactiplantibacillus plantarum, JCM1149",0.06 µg/mL
same,MIC,"[1]; Lactobacillus acidophilus, JCM1132",0.125 µg/mL
same,MIC,"[1]; Levilactobacillus brevis, JCM1059",0.06 µg/mL
same,MIC,"[1]; Ligilactobacillus salivarius, JCM1231",0.5 µg/mL
same,MIC,"[1]; Limosilactobacillus reuteri, JCM1112",0.06 µg/mL
same,MIC,"[1]; Limosilactobacillus reuteri, JCM1173",≤ 0.03 µg/mL
same,MIC,"[1]; Paraclostridium sordellii, ATCC9714",≤ 0.03 µg/mL
same,MIC,[1]; Parvimonas micra,0.125 µg/mL
same,MIC,[1]; Peptoniphilus asaccharolyticus,0.125 µg/mL
same,MIC,[1]; Peptoniphilus indolicus,≤ 0.03 µg/mL
same,MIC,"[1]; Peptostreptococcus anaerobius, ATCC27337",0.06 µg/mL
same,MIC,[1]; Schaalia odontolytica,0.5 µg/mL
same,MIC,"[1]; Staphylococcus saccharolyticus, ATCC14953",≤ 0.03 µg/mL
same,MIC,"[1]; Streptococcus constellatus, ATCC27823",0.25 µg/mL
same,MIC,"[1]; Streptococcus intermedius, ATCC27335",0.25 µg/mL
same,MIC,"[1]; Thomasclavelia ramosa, ATCC25582",0.25 µg/mL
same,MIC,"[2]; Bacteroides eggerthii, ATCC27754",0.125 µg/mL
same,MIC,"[2]; Bacteroides fragilis, ATCC25285, Bacteroides fragilis ATCC25285, read-out: MIC",0.5 µg/mL
same,MIC,"[2]; Bacteroides fragilis, Bacteroides fragilis GA15562, read-out: MIC",0.25 µg/mL
same,MIC,"[2]; Bacteroides fragilis, Bacteroides fragilis GA-I0558, read-out: MIC",1 µg/mL
same,MIC,"[2]; Bacteroides fragilis, Bacteroides fragilis GA-I7955, read-out: MIC",4 µg/mL
same,MIC,"[2]; Bacteroides fragilis, Bacteroides fragilis GAI10150, read-out: MIC",2 µg/mL
same,MIC,"[2]; Bacteroides fragilis, Bacteroides fragilis GAI30079, read-out: MIC",256 µg/mL
same,MIC,"[2]; Bacteroides fragilis, Bacteroides fragilis GAI30144, read-out: MIC",256 µg/mL
same,MIC,"[2]; Bacteroides fragilis, NCTC10581",0.125 µg/mL
same,MIC,"[2]; Bacteroides ovatus, ATCC8483, Bacteroides ovatus ATCC8483, read-out: MIC",0.25 µg/mL
same,MIC,"[2]; Bacteroides thetaiotaomicron, ATCC29741, Bacteroides thetaiotaomicron ATCC29741, read-out: MIC",0.5 µg/mL
same,MIC,"[2]; Bacteroides uniformis, ATCC8492, Bacteroides uniformis ATCC8492, read-out: MIC",0.5 µg/mL
same,MIC,"[2]; Bilophilla wadsworthia WAL7959, read-out: MIC",0.25 µg/mL
same,MIC,"[2]; Campylobacter gracilis, JCM8538, Campylobacter gracilis JCM8538, read-out: MIC",0.25 µg/mL
same,MIC,"[2]; Campylobacter ureolyticus, NCTC10941, Bacteroides ureolyticus NCTC10941, read-out: MIC",0.25 µg/mL
same,MIC,"[2]; Capnocytophaga ochracea, Capnocytophaga ochracea GAI5586, read-out: MIC",0.25 µg/mL
same,MIC,"[2]; Desullomonas pigra DSM749, read-out: MIC",0.06 µg/mL
same,MIC,"[2]; Fusobacterium necrophorum, ATCC25286",0.125 µg/mL
same,MIC,"[2]; Fusobacterium nucleatum, ATCC25586, Fusobacterium nucleatum ATCC25586, read-out: MIC",1 µg/mL
same,MIC,"[2]; Fusobacterium varium, ATCC8501, Fusobacterium varium ATCC8501, read-out: MIC",4 µg/mL
same,MIC,"[2]; Hoylesella oralis, ATCC33269, Prevotella oralis ATCC33269, read-out: MIC",≤ 0.03 µg/mL
same,MIC,"[2]; Parabacteroides distasonis, ATCC8503, Bacteroides distasonis ATCC8503, read-out: MIC",1 µg/mL
same,MIC,"[2]; Phocaeicola vulgatus, ATCC8482, Bacteroides vulgatus ATCC8482, read-out: MIC",1 µg/mL
same,MIC,"[2]; Porphylomonas gingivalis ATCC33277, read-out: MIC",≤ 0.03 µg/mL
same,MIC,"[2]; Porphyromonas asaccharolytica, ATCC25260, Porphyromonas asaccharolytica ATCC25260, read-out: MIC",≤ 0.03 µg/mL
same,MIC,"[2]; Prevotella bivia, ATCC29303, Prevotella bivia ATCC29303, read-out: MIC",0.06 µg/mL
same,MIC,"[2]; Prevotella buccaeATCC33574, read-out: MIC",0.25 µg/mL
same,MIC,"[2]; Prevotella corporis, Prevotella corporis GAI91000, read-out: MIC",≤ 0.03 µg/mL
same,MIC,"[2]; Prevotella heparinolytica, ATCC35895",0.125 µg/mL
same,MIC,"[2]; Prevotella melaninogenica, Prevotella melaninogenica GAI5490, read-out: MIC",≤ 0.03 µg/mL
same,MIC,"[2]; Segatella oris, ATCC33573, Prevotella oris ATCC33573, read-out: MIC",0.06 µg/mL
same,MIC,"[2]; Sutterella wadsworthensis, ATCC51579, Sutterella wadsworthensis ATCC51579, read-out: MIC",2 µg/mL
same,MIC,"[2]; Veillonella dispar, ATCC17748, Veillonella dispar ATCC17748, read-out: MIC",0.06 µg/mL
same,MIC,"[2]; Veillonella parvula, ATCC10790",0.125 µg/mL
same,MIC50,Pseudomonas aeruginosa,2 µg/mL
same,MIC90,Pseudomonas aeruginosa,32 µg/mL
same,MIC50,Klebsiella pneumoniae; Klebsiella pneumoniae,0.25 µg/mL
same,MIC90,Klebsiella pneumoniae; Klebsiella pneumoniae,1 µg/mL
same,MIC Range,Klebsiella pneumoniae,0.125 to 4 µg/mL
same,MIC50,Proteus mirabilis; Proteus mirabilis,2 µg/mL
same,MIC90,Proteus mirabilis; Proteus mirabilis,4 µg/mL
same,MIC Range,Proteus mirabilis,0.125 to 16 µg/mL
same,MIC50,"Enterobacter spp.; Enterobacter, read-out: MIC50",1 µg/mL
same,MIC90,"Enterobacter spp.; Enterobacter, read-out: MIC90",2 µg/mL
same,MIC Range,Enterobacter spp.,0.25 to 64 µg/mL
same,MIC50,Acinetobacter spp.; Acinetobacter,1 µg/mL
same,MIC90,Acinetobacter spp.; Acinetobacter,4 µg/mL
same,MIC Range,Acinetobacter spp.,0.06 to 16 µg/mL
